Measured values from patent publication US7045606B2, “Bifunctional chelating agent for actinium” (European Community, priority 2001, dated 2006).

Experiment: complexation properties of chelating agents with 225Ac
Type: physicochemical
Conditions: compared with the non-functionalised chelating agents EDTA, DTPA, DOTA, PEPA, HEHA, HOHEC and EDTMP
Experimental: Different non-functionalised chelating agents (commercially available or readily synthesised in the laboratory) bearing aminocarboxylate groups (EDTA, DTPA, DOTA, PEPA, HEHA and HOHEC) or aminophosphonate groups (EDTMP) were tested for their complexation properties with ^225Ac. […] Polyaza polycarboxylic macrocycles are known to form thermodynamically stable complexes with large metal ions such as actinides and lanthanides.

- complexation properties with ^225Ac: best candidate
Compound: O=C(O)CN1CCN(CC(=O)O)CCN(CC(=O)O)CCN(CC(=O)O)CCN(CC(=O)O)CCN(CC(=O)O)CCN(CC(=O)O)CCN(CC(=O)O)CC1 [HOTEC, 1,4,7,10,13, 16,19,22-octacarboxylmethyl-1,4,7,10,13,16,19,22-octaazacyclotetracosane]
